Test results from patent US20240207285A1 (Melt Pharmaceuticals, Inc., priority 2022, published 2024).

Legend:
[1] = Phase 1 relative bioavailability study: plasma pharmacokinetics of midazolam, 1-hydroxymidazolam, ketamine and norketamine
Description: PK analysis was performed using noncompartmental methods in Phoenix WinNonlin® (Version 8.1, Certara, L.P.) in conjunction with the internet-accessible implementation of the Pharsight® Knowledgebase Server™ (PKSO; Version 4.0.4, Certara, L.P). PKSO provides protected and structured storage, audit trails, and version control for study data, analyses, and related files, supporting 21 CFR Part 11 compliance. The analysis was performed in accordance with the Statistical Analysis Plan (Version 1.0, 5 Jan. 2021).
During the PK analysis, concentrations below the limit of quantitation (BLQ) up to the time of the first quantifiable concentration were treated as zero. Embedded (values between 2 quantifiable concentrations) and terminal BLQ concentrations were treated as “missing”. Calculation of the PK characteristics were based on actual elapsed times [h] (relative to time of dose).
All PK analyses were performed on the data from the PK Analysis Population. […] The ANOVA model included factors for sequence, subject within sequence, treatment, and period.

[2] = tested on: healthy adult subjects; experiment: Phase 1 sedation level by Ramsay sedation scale (RSS); assay type: in vivo, human
Description: (§1) Pharmacodynamic parameters included sedation, defined as time to onset of sedation and sedation level, assessed using the Ramsay sedation scale (RSS), and cardiodynamics assessed by QTcF, heart rate, and PR and QRS intervals, and T-wave morphology and U-wave presence, extracted from ECGs collected via Holter monitor from predose through 24 hours postdose.
All pharmacodynamic analyses were performed on data from the Safety Population. The RSS scores were summarized by treatment and by timepoint. Time to onset of sedation was summarized by treatment and presented graphically.

[3] = tested on: healthy adult subjects; experiment: Phase 1 electrocardiograms / cardiodynamics; assay type: in vivo, human; settings: one subject, 24 hours after midazolam 3.5 mg IV; not considered clinically significant
Description: as §1
An analysis of categorical outliers was performed for changes in heart rate; PR, QRS, and QTcF intervals; T-wave morphology; and U-wave presence.
(§2) Vital signs, clinical laboratory values (hematology, serum chemistry, and urinalysis), and 12-lead ECG parameters were summarized by treatment including any abnormal values flagged.

[4] = tested on: healthy adult subjects; experiment: Phase 1 vital signs and pulse oximetry; assay type: in vivo, human; settings: for Mean changes from baseline in systolic and diastolic blood pressures: MELT-100 3/25 mg and 6/25 mg (so in the source), midazolam 3.5 mg IV, ketamine 18 mg IV, each timepoint
Source text: (§3) The Investigator evaluated safety using physical and oral examinations, O2 saturation (SpO2), vital sign measurements, clinical laboratory evaluations, electrocardiograms (ECGs), reported or observed adverse events (AEs), and assessments of neurocognitive function. Subjects were monitored for any AEs from the first dose through the end of the study.
as §2

[5] = tested on: healthy adult subjects; experiment: Phase 1 adverse events; assay type: in vivo, human
Source text: as §3
Adverse events were coded using the Medical Dictionary for Regulatory Activities (MedDRA, version 22.0, or later) terms and summarized by system organ class (SOC) and preferred term (PT) within SOC. The number and percentage of subjects reporting TEAEs were summarized by reported SOC and PT for each treatment and the population overall. TEAEs were also summarized by maximum severity and nearest relationship to study drug, by SOC and PT for each treatment.
A by-subject AE (including treatment-emergent) data listing, including but not limited to verbatim term, SOC, PT, severity, and relationship to study treatment, was provided. Deaths, SAEs, and other significant AEs, including those leading to early termination of study treatments were listed.

[6] = Treatment C: midazolam 3.5 mg IV, mean
[7] = Treatment D: ketamine 18 mg IV, mean
[8] = 5 minutes after ketamine 18 mg IV

Cc1ncc2n1-c1ccc(Cl)cc1C(c1ccccc1F)=NC2 [Midazolam, 8-chloro-6-(2-fluorophenyl)-1-methyl-4H-imidazo[1,5-a][1,4]benzodiazepine]
AUCExtrap, midazolam [1, 6]: 5.58%
Clast, midazolam [1, 6]: 0.963 ng/mL
Vd ([1]; human, plasma, iv, 3.5 mg): 202 L
clearance ([1]; human, plasma, iv, 3.5 mg): 348 mL/min
half-life ([1]; human, plasma, iv, 3.5 mg): 420 min
AUC(0-t) ([1]; human, plasma, iv, 3.5 mg, AUC0-t, midazolam, Treatment C: midazolam 3.5 mg IV, mean): 168 ng·h/mL
AUC(0-inf) ([1]; human, plasma, iv, 3.5 mg, AUCinf, midazolam, Treatment C: midazolam 3.5 mg IV, mean): 179 ng·h/mL
Cmax ([1]; human, plasma, iv, 3.5 mg, Cmax, midazolam, Treatment C: midazolam 3.5 mg IV, mean): 146 ng/mL
AUC(0-t) ([1]; human, plasma, iv, 3.5 mg, GeoMean AUC0-t, midazolam, Ref (C) midazolam 3.5 mg IV, least squares geometric mean): 164 ng·h/mL
AUC(0-inf) ([1]; human, plasma, iv, 3.5 mg, GeoMean AUCinf, midazolam, Ref (C) midazolam 3.5 mg IV, least squares geometric mean): 174 ng·h/mL
Cmax ([1]; human, plasma, iv, 3.5 mg, GeoMean Cmax, midazolam, Ref (C) midazolam 3.5 mg IV, least squares geometric mean): 127 ng/mL
Tmax ([1]; human, plasma, iv, 3.5 mg, Median Tmax, midazolam, Treatment C: midazolam 3.5 mg IV): 11 min
Tmax ([1]; human, plasma, iv, 3.5 mg, Tmax, midazolam, Treatment C: midazolam 3.5 mg IV, median (range)): 11 min
Subjects with RSS scores of 3 ([2]; 5 minutes after midazolam 3.5 mg IV): 2 (8.3%) subjects (%)
Highest proportion of subjects with RSS scores >2 postdose ([2]; midazolam 3.5 mg IV): ~54%
PR duration [3]: abnormal
Mean changes from baseline in systolic and diastolic blood pressures [4]: minimal and similar
Mean change from baseline in pulse oximetry ([4]; midazolam 3.5 mg IV at 10 minutes postdose, MELT-100 6/50 mg at 30 minutes postdose, minimal at 2 hours): small mean decrease from baseline
Number of treatment-related AEs ([5]; midazolam 3.5 mg IV): 2 events

CNC1(c2ccccc2Cl)CCCCC1=O (centres unmarked) [Ketamine, 2-(2-chlorophenyl)-2-(methylamino)cyclohexanone]
AUCExtrap, ketamine [1, 7]: 9.64%
CL, ketamine [1, 7]: 59.9 L/h
Clast, ketamine [1, 7]: 1.99 ng/mL
half-life ([1]; human, plasma, iv, 18 mg): 618 min
AUC(0-t) ([1]; human, plasma, iv, 18 mg, AUC0-t, ketamine, Treatment D: ketamine 18 mg IV, mean): 283 ng·h/mL
AUC(0-inf) ([1]; human, plasma, iv, 18 mg, AUCinf, ketamine, Treatment D: ketamine 18 mg IV, mean): 316 ng·h/mL
Cmax ([1]; human, plasma, iv, 18 mg, Cmax, ketamine, Treatment D: ketamine 18 mg IV, mean): 250 ng/mL
AUC(0-t) ([1]; human, plasma, iv, 18 mg, GeoMean AUC0-t, ketamine, Ref (D) ketamine 18 mg IV, least squares geometric mean): 277 ng·h/mL
AUC(0-inf) ([1]; human, plasma, iv, 18 mg, GeoMean AUCinf, ketamine, Ref (D) ketamine 18 mg IV, least squares geometric mean): 307 ng·h/mL
Cmax ([1]; human, plasma, iv, 18 mg, GeoMean Cmax, ketamine, Ref (D) ketamine 18 mg IV, least squares geometric mean): 208 ng/mL
Tmax ([1]; human, plasma, iv, 18 mg, Tmax, ketamine, Treatment D: ketamine 18 mg IV, median (range)): 10 min
Subjects with RSS score of 1 [2, 8]: 1 (4.0%) subjects (%)
Subjects with RSS score of 5 [2, 8]: 1 (4.0%) subjects (%)
Highest proportion of subjects with RSS scores >2 postdose ([2]; ketamine 18 mg IV): ~8%
Mean changes from baseline in systolic and diastolic blood pressures [4]: highest at the 10-minute timepoint
Treatment-related AEs of hypertension ([5]; ketamine 18 mg IV): 3 AEs
